Source: patent EP0144996A2, “Substituted spiro pyridine derivatives, pharmaceutical compositions containing them and processes for the preparation of such compounds and compositions” (SCHERING CORPORATION, priority 1983, dated 1985)

Legend:
[1] = system: allergen-induced histamine release; assay: Allergen-induced histamine release from sensitized human tissue; format: cell-based
[2] = system: allergen-induced histamine release; assay: Allergen-induced histamine release from sensitized guinea pig tissue; format: cell-based
[3] = system: anaphylactic bronchospasm; assay: Inhibition of anaphylactic bronchospasm in sensitized guinea pigs with antigen-induced bronchoconstriction; format: in vivo; conditions: oral dose of 5 mg/kg
Method: The anti-allergy method of this invention is identified by tests which measure a compound's inhibition of anaphylactic bronchospasm in sensitized guinea pigs having antigen-induced bronchoconstriction. […] The compounds are effective non-adrenergic, non-anticholinergic antianaphylactic agents. When administered orally they are active at doses from about 0.1 to 50 mg/kg of body weight; when administered parenterally, e.g., intravenously, the compounds are active at dosages of from about 0.01 to 5 mg/kg body weight; when administered by inhalation (aerosol or nebulizer) the compounds are active at dosages of about 0.1 to 5 mg per puff, and one to four puffs may be taken every 4 hours.

For `O=C1c2cccnc2N(c2ccccc2)C(=O)C12CCCCO2` (stereo not drawn) [1-phenyl-3',4',5',6'-tetrahydro-spiro[1,8-naphthyridine-3,2'-(2H)pyran]-2,4-dione], the “inhibition of allergen-induced histamine release” value [1] was “inhibit allergen-induced histamine release”, the “inhibition of allergen-induced histamine release” value [2] was “inhibit allergen-induced histamine release” and the “inhibition of anaphylactic bronchospasms” value [3] was “inhibit anaphylactic bronchospasms”.
